Reference: ChEMBL document CHEMBL5390227, “Development of QTMP: A promising anticancer agent through NP-Privileged Motif-Driven structural modulation” (Bioorg Med Chem, 2023)
The source made the active and inactive calls. No cut-off for these calls is given here.

Tests used:
HeLa [1] = assay: Antiproliferative activity against human HeLa cells assessed as inhibition of cell growth at 25 nM measured after 24 hrs by SRB assay relative to control; format: functional
HeLa [2] = assay: Antiproliferative activity against human HeLa cells assessed as reduction in cell growth by SRB assay; format: functional, cell-based
Tubulin (Homo sapiens) [3] = target: T1, Tubulin (Homo sapiens) (UniProt P68371+Q9H4B7+P0DPH7+P68366+Q13509+Q71U36+P04350+Q3ZCM7+P07437+P68363+Q9BQE3+Q6PEY2+Q13885+Q9BVA1+Q9BUF5); assay: Inhibition of tubulin polymerization in human A549 cells assessed as induction of interphase microtubule disorganization at 10 nM measured after 24 hrs by Hoechst-33258 staining based immunofluorescence analysis; format: cell-based
A549 [4] = assay: Antiproliferative activity against human A549 cells assessed as reduction in cell growth by SRB assay; format: functional, cell-based
T47D = assay: Antiproliferative activity against human T47D cells assessed as reduction in cell growth by SRB assay; format: functional, cell-based
MDA-MB-231 = assay: Antiproliferative activity against human MDA-MB-231 cells assessed as reduction in cell growth by SRB assay; format: functional, cell-based
MCF7 = assay: Antiproliferative activity against human MCF7 cells assessed as reduction in cell growth by SRB assay; format: functional, cell-based
[5] = Antiproliferative activity against human H357 cells assessed as reduction in cell growth by SRB assay; format: functional, cell-based
[6] = Cytotoxicity against mouse L929 cells assessed as reduction in cell growth by SRB assay; format: toxicity, cell-based
B16-F10 = assay: Antiproliferative activity against mouse B16-F10 cells assessed as reduction in cell growth by SRB assay; format: functional, cell-based
A549 [7] = assay: Induction of cell cycle arrest in human A549 cells assessed as accumulation of cells at G1 phase at 10 nM incubated for 12 hrs by propidium iodide/RNase-staining based flow cytometry analysis (reference value: 67 +/- 11%); format: functional
A549 [8] = assay: Induction of cell cycle arrest in human A549 cells assessed as accumulation of cells at S phase at 10 nM incubated for 12 hrs by propidium iodide/RNase-staining based flow cytometry analysis (reference value: 22 +/- 6%); format: functional
A549 [9] = assay: Induction of cell cycle arrest in human A549 cells assessed as accumulation of cells at G1 phase at 20 nM incubated for 12 hrs by propidium iodide/RNase-staining based flow cytometry analysis (reference value: 67 +/- 11%); format: functional
A549 [10] = assay: Induction of cell cycle arrest in human A549 cells assessed as accumulation of cells at G2/M phase at 10 nM incubated for 12 hrs by propidium iodide/RNase-staining based flow cytometry analysis (reference value: 11 +/- 4%); format: functional
A549 [11] = assay: Induction of cell cycle arrest in human A549 cells assessed as accumulation of cells at S phase at 20 nM incubated for 12 hrs by propidium iodide/RNase-staining based flow cytometry analysis (reference value: 22 +/- 6%); format: functional
A549 [12] = assay: Induction of cell cycle arrest in human A549 cells assessed as accumulation of cells at G2/M phase at 20 nM incubated for 12 hrs by propidium iodide/RNase-staining based flow cytometry analysis (reference value: 11 +/- 4%); format: functional
A549 [13] = assay: Cytotoxicity against human A549 cells assessed as proportion of live cells at 10 nM incubated for 24 hrs by PI-staining based flow cytometry analysis (reference value: 90.1 to 90.2%); format: functional
A549 [14] = assay: Cytotoxicity against human A549 cells assessed as proportion of dead cells at 20 nM incubated for 24 hrs by PI-staining based flow cytometry analysis (reference value: 9.8 to 9.9%); format: functional
A549 [15] = assay: Cytotoxicity against human A549 cells assessed as proportion of dead cells at 10 nM incubated for 24 hrs by PI-staining based flow cytometry analysis (reference value: 9.8 to 9.9%); format: functional
A549 [16] = assay: Cytotoxicity against human A549 cells assessed as proportion of live cells at 20 nM incubated for 24 hrs by PI-staining based flow cytometry analysis (reference value: 90.1 to 90.2%); format: functional
[17] = Selectivity index, ratio of IC50 for cytotoxicity against mouse L929 cells to IC50 for antiproliferative activity against mouse B16-F10 cells; format: toxicity, cell-based; settings: L929 cells versus B16-F10 cells, read-out: Ratio IC50
[18] = Aqueous stability of the compound in PBS assessed as absorbance at 40 uM measured at pH 7.2 after 20 days by spectrophotometer analysis; format: physicochemical; settings: time 20 day, read-out: Stability
Tubulin (Homo sapiens) [19] = target: T1, Tubulin (Homo sapiens); assay: Inhibition of tubulin polymerization in human A549 cells assessed as induction of interphase microtubule disorganization at 20 nM measured after 24 hrs by Hoechst-33258 staining based immunofluorescence analysis; format: cell-based
Tubulin (Homo sapiens) [20] = target: T1, Tubulin (Homo sapiens); assay: Inhibition of tubulin polymerization in human A549 cells assessed as reduction in fluorescence intensity of microtubules at 10 nM measured after 24 hrs by Hoechst-33258 staining based immunofluorescence analysis relative to control; format: cell-based
Tubulin (Homo sapiens) [21] = target: T1, Tubulin (Homo sapiens); assay: Inhibition of tubulin polymerization in human A549 cells assessed as reduction in fluorescence intensity of microtubules at 20 nM measured after 24 hrs by Hoechst-33258 staining based immunofluorescence analysis relative to control; format: cell-based
Tubulin (Homo sapiens) [22] = target: T1, Tubulin (Homo sapiens); assay: Inhibition of tubulin polymerization in human A549 cells assessed as induction of mitotic spindle microtubules depolymerization at 20 nM measured after 24 hrs by Hoechst-33258 staining based immunofluorescence analysis; format: cell-based
Tubulin (Homo sapiens) [23] = target: T1, Tubulin (Homo sapiens); assay: Inhibition of tubulin polymerization in human HeLa cells assessed as induction of interphase microtubule depolymerization at 10 to 20 nM measured after 24 hrs by Hoechst-33258 staining based immunofluorescence analysis; format: cell-based; settings: dose 10-20 nM
Tubulin (Homo sapiens) [24] = target: T1, Tubulin (Homo sapiens); assay: Inhibition of tubulin polymerization in human HeLa cells assessed as induction of mitotic microtubule depolymerization at 10 to 20 nM measured after 24 hrs by Hoechst-33258 staining based immunofluorescence analysis; format: cell-based; settings: dose 10-20 nM
Capra hircus [25] = species on record: Capra hircus; assay: Inhibition of goat brain tubulin polymerization at 0.5 uM incubated for 10 mins followed by GTP addition and measured for 35 mins by spectrophotometric analysis relative to control; settings: time 45.0 min
Capra hircus [26] = species on record: Capra hircus; assay: Inhibition of goat brain tubulin polymerization at 1 uM incubated for 10 mins followed by GTP addition and measured for 35 mins by spectrophotometric analysis relative to control; format: tissue-based; settings: time 45.0 min
Capra hircus [27] = species on record: Capra hircus; assay: Inhibition of goat brain tubulin polymerization at 2 uM incubated for 10 mins followed by GTP addition and measured for 35 mins by spectrophotometric analysis relative to control; settings: time 45.0 min
Capra hircus [28] = species on record: Capra hircus; assay: Inhibition of goat brain tubulin polymerization at 3 uM incubated for 10 mins followed by GTP addition and measured for 35 mins by spectrophotometric analysis relative to control; format: tissue-based; settings: time 45.0 min
Capra hircus [29] = species on record: Capra hircus; assay: Inhibition of goat brain tubulin polymerization at 5 uM incubated for 10 mins followed by GTP addition and measured for 35 mins by spectrophotometric analysis relative to control; settings: time 45.0 min
[30] = Inhibition of goat brain tubulin polymerization incubated for 10 mins followed by GTP addition and measured for 35 mins by spectrophotometric analysis; format: tissue-based, Capra hircus
Capra hircus [31] = species on record: Capra hircus; assay: Inhibition of goat brain tubulin polymerization assessed as reduction in initial rate of tubulin polymerization incubated for 10 mins followed by GTP addition and measured for 35 mins by spectrophotometric analysis; format: tissue-based; settings: dose 2-6 µM, time 45.0 min
[32] = Binding affinity to goat brain tubulin assessed as increase in fluorescence intensity incubated for 30 mins by spectrofluorometric analysis; format: tissue-based, Capra hircus
Capra hircus [33] = species on record: Capra hircus; assay: Binding affinity to colchicine binding site of goat brain tubulin assessed as tubulin-compound complex fluorescence intensity at 10 uM preincubated with CA-4 for 30 mins followed by compound addition and measured after 30 mins by fluorescence based analysis
Capra hircus [34] = species on record: Capra hircus; assay: Binding affinity to colchicine binding site of goat brain tubulin assessed as tubulin-compound complex fluorescence intensity at 10 uM preincubated with podophyllotoxin for 30 mins followed by compound addition and measured after 30 mins by fluorescence based analysis
[35] = Aqueous stability of the compound in PBS assessed as absorbance at 40 uM measured at pH 7.2 after 24 hrs by spectrophotometer analysis; format: physicochemical; settings: read-out: Stability

COc1cc(-c2nc(N)[nH]c2-c2ccc3ncccc3c2)cc(OC)c1OC
inhibition at 0.025 µM (HeLa [1]): 9%

COc1cc(-c2nc(N)[nH]c2-c2cnc3ccc(C)cc3c2)cc(OC)c1OC
inhibition at 0.025 µM (HeLa [1]): 8%

COc1cc(-c2nc(N)[nH]c2-c2cncc3ccccc23)cc(OC)c1OC
inhibition at 0.025 µM (HeLa [1]): 47% | IC50 (HeLa [2]): 41 nM

COc1cc(-c2nc(N)[nH]c2-c2cccc3cnccc23)cc(OC)c1OC
inhibition at 0.025 µM (HeLa [1]): 43%

COc1cc(-c2nc(N)[nH]c2-c2ccc3cnccc3c2)cc(OC)c1OC
inhibition at 0.025 µM (HeLa [1]): 46% | IC50 (HeLa [2]): 46 nM

COc1cc(-c2nc(N)[nH]c2-c2ccc3nc(C)ccc3c2)cc(OC)c1OC
inhibition at 0.025 µM (HeLa [1]): 5%

COc1cc(-c2nc(N)[nH]c2-c2cccc3ncccc23)cc(OC)c1OC
inhibition at 0.025 µM (HeLa [1]): 27%

COc1ccc2ncc(-c3[nH]c(N)nc3-c3cc(OC)c(OC)c(OC)c3)cc2c1
inhibition at 0.025 µM (HeLa [1]): 30%

COc1cc(-c2nc(N)[nH]c2-c2ccc3ccccc3c2)cc(OC)c1OC
inhibition at 0.025 µM (HeLa [1]): 34%

COc1cc(-c2nc(N)[nH]c2-c2ccc3ccccc3n2)cc(OC)c1OC
inhibition (Tubulin (Homo sapiens) [3]): Active | inhibition at 0.025 µM (HeLa [1]): 74% | IC50 (HeLa [2]): 10 nM | IC50 (A549 [4]): 12 nM | IC50 (T47D): 47 nM | IC50 (MDA-MB-231): 13 nM | IC50 (MCF7): 20 nM | IC50 [5]: 15 nM | IC50 [6]: 69 nM | IC50 (B16-F10): 25 nM | Activity (A549 [7]): 51% | Activity (A549 [8]): 20% | Activity (A549 [9]): 37% | Activity (A549 [10]): 29% | Activity (A549 [11]): 19% | Activity (A549 [12]): 44% | Activity (A549 [13]): 76.7% | Activity (A549 [14]): 35.9% | Activity (A549 [15]): 22% | Activity (A549 [16]): 62.7% | selectivity ratio [17]: 2.76 | remaining at 480 h, 40 µM [18]: 47% | inhibition (Tubulin (Homo sapiens) [19]): Active | inhibition (Tubulin (Homo sapiens) [20]): 23.6% | inhibition (Tubulin (Homo sapiens) [21]): 53.2% | inhibition (Tubulin (Homo sapiens) [22]): Active | inhibition (Tubulin (Homo sapiens) [23]): Active | inhibition (Tubulin (Homo sapiens) [24]): Active | inhibition (Capra hircus [25]): 8% | inhibition (Capra hircus [26]): 11% | inhibition (Capra hircus [27]): 28% | inhibition (Capra hircus [28]): 45% | inhibition (Capra hircus [29]): 75% | IC50 [30]: 3400 nM | inhibition (Capra hircus [31]): Dose-Dependent Effect | Kd [32]: 5000 nM | Activity (Capra hircus [33]): inactive | Activity (Capra hircus [34]): inactive

COc1cc(-c2nc(N)[nH]c2-c2cnc3ccc(Cl)cc3c2)cc(OC)c1OC
inhibition at 0.025 µM (HeLa [1]): 11%

COc1cc(-c2nc(N)[nH]c2-c2ccnc3ccccc23)cc(OC)c1OC
inhibition at 0.025 µM (HeLa [1]): 7%

COc1ccc(/C=C\c2cc(OC)c(OC)c(OC)c2)cc1O [COMBRETASTATIN A4]
inhibition at 0.025 µM (HeLa [1]): 57% | IC50 (HeLa [2]): 24 nM | IC50 (A549 [4]): 43 nM | IC50 (T47D): 407 nM | IC50 (MDA-MB-231): 100 nM | IC50 (MCF7): 24 nM | IC50 [5]: 3.5 nM | IC50 [6]: 117 nM | IC50 (B16-F10): 82 nM | Activity (A549 [9]): 65% | Activity (A549 [11]): 18% | Activity (A549 [12]): 17% | Activity (A549 [14]): 7.37% | Activity (A549 [16]): 90.4% | remaining at 24 h, 40 µM [35]: 47%

COc1cc(-c2nc(N)[nH]c2-c2ccnc3cc(Cl)ccc23)cc(OC)c1OC
inhibition at 0.025 µM (HeLa [1]): 11%

COc1cc(-c2nc(N)[nH]c2-c2cccc3cccnc23)cc(OC)c1OC
inhibition at 0.025 µM (HeLa [1]): 32%
